Consider two molecules from US20110046160A1, “Novel Class of Spiro Piperidines for the Treatment of Neurodegenerative Diseases” (Pfizer, Inc., priority 2008, published 2011).

In this experiment the target is T1, soluble human BACE (Homo sapiens, UniProt P56817).
T1 construct: cells secreting human recombinant soluble BACE; made in house; concentrated conditioned medium, crude or purified
In words: Inhibition of BACE: beta-secretase cleavage of synthetic biotinylated APP substrate, ELISA readout. The format is biochemical. The conditions noted are these: 3 μM substrate, 0.05M sodium acetate (pH 4.5), 2% DMSO, 1 hour at 37° C., ELISA absorbance at 450 nm. The procedure: The substrate and test compounds are added to 384 well polypropylene plates. The reaction is initiated by the addition of soluble BACE enzyme to a final volume of 12.5 μL per well. […] Concentrated conditioned media from cells secreting human recombinant soluble BACE was titrated to provide a source of BACE enzyme. The cell media can be used as either a crude BACE prep or BACE can be purified using any number of techniques, including immobilized BACE inhibitor purification columns. The assay mixture is incubated for 1 hour at 37° C., and the reaction is quenched by the addition of an equal volume of 0.1M Tris, pH 8. Half of the quenched mix is incubated on clear streptavidin coated 384 well polystyrene plates for 1 hour. […] The readout, following assay development with TMB substrate and quenching with 0.09M sulfuric acid, is absorbance at 450 nm.
Background: An ELISA detects its analyte on a solid surface through an enzyme-linked reagent.

T1 sequence (P56817 46-457 limits assumed): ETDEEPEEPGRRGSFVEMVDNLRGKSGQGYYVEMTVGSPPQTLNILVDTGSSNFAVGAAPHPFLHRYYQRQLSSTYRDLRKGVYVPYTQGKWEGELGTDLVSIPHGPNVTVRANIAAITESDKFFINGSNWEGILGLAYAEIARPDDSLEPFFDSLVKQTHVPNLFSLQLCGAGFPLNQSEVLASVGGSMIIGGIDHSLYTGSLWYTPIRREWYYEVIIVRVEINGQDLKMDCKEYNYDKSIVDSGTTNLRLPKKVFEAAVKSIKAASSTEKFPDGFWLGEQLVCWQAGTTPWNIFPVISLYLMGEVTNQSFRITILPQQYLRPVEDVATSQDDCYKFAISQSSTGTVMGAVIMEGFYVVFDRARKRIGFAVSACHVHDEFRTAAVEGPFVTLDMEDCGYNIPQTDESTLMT

What is called IC50 is the point on the concentration scale where inhibition reaches its midpoint. Low readings indicate greater potency, high ones weaker potency. Regarding `Cc1ccncc1-c1cccc(CN2CC[C@]3(CNS(=O)(=O)N3c3cccc(F)c3)C[C@@H]2C)c1` [Example 17, (5R,7S)-1-(3-fluorophenyl)-7-methyl-8-[3-(4-methylpyridin-3-yl)benzyl]-2-thia-1,3,8-triazaspiro[4.5]decane 2,2-dioxide], the IC50 was determined as 1.51 µM.

As for `CC(C)Oc1cccc(CN2CC[C@]3(CNS(=O)(=O)N3c3cccc(F)c3)C[C@@H]2C)n1` [Example 83, (5R,7S)-1-(3-fluorophenyl)-8-[(6-isopropoxypyridin-2-yl)methyl]-7-methyl-2-thia-1,3,8-triazaspiro[4.5]decane 2,2-dioxide], the IC50 is 102 µM.
